Results on seven molecules are retold here after patent US6630124B1, “Combination therapy with VIP antagonist” (Ramot-University Authority for Applied Research and …, priority 1998, dated 2003).

Where no end group is shown, it is not given here. [ ]: non-standard residue; d: D form. The star is where a group is joined. Stearoyl = CCCCCCCCCCCCCCCCCC(=O)*; Nle = CCCC[C@H](N)C(=O)O

For one experiment, the system named is MCF-7 cells. Nature of the experiment: MTT colorimetric assay, breast cancer cells (Example 6). The format is cell-based. Conditions: for Absorbance at 570 nM: MCF-7, MTT, 5 days. Here is the method: The ability of VIP receptor antagonists to alter the growth of breast cancer cells was investigated in vitro using the MTT colorimetric. The semiautomated MTT assay measures reduction of a tetrazolium compound by tumor cells to formazan. The optical density at 570 nm was determined for 8 wells at each inhibitor concentration. Seeding densities were 5×10^4 cells/well and cells were grown in 96 well plates for 5 days.

Experiment [1] concerns VIP receptor (glioblastoma cells). Nature of the experiment: cAMP in glioblastoma cells, basal and VIP-stimulated. The settings on record: 10 nM VIP. The class given is cell-based. From the text:
The effects of VIP receptor antagonists on glioblastoma cell lines were investigated.

For another experiment, the system named is MDA-MB231 xenografts. Nature of the experiment: MDA-MB231 breast cancer xenografts in nude mice. The class given is in vivo, Balb/c nude mice. The settings on record: after 4 weeks; VIPhyb 10 μg/day s.c., Taxol 1.5 mg i.p. once; PBS control 1121 mm^3. Here is the method:
To test the proliferative aspects of VIPhybrid analogs in vivo, nude mice bearing breast cancer xenografts were utilized. Female athymic Balb/c nude mice, 4-5 weeks old, were housed in a pathogen-free temperature controlled isolation room and the diet consisted of autoclaved rodent chow and autoclaved water given ad libitum. MDA-MB231 cells (1×10^7) were injected into the right flank of each mouse subcutaneously. […] PBS (100 μl) or VIPhyb analogs (10 μg/day) were injected subcutaneously adjacent to the tumor. Taxol was injected once (1.5 mg i.p.) after 2 weeks. The tumor volume (height×width×depth) was determined twice weekly by calipers and recorded.

The subject of experiment [2] is NCI-H727 non-small cell lung cancer (carcinoid). Briefly: MTS cell proliferation assay, SNH and chemotherapy. The class given is cell-based. Conditions: for nature of the combined effect with SNH: combination with SNH; for reduction of the IC50 of the chemotherapeutic agent by SNH: 5 μM SNH, NCI-H727. As for the experimental part: NCI-H727 and LNCaP were grown in RPMI 1640 medium supplemented with 10% heat inactivated FCS, L-glutamine and antibiotics. HT-29 and CT-26 were grown in DMEM medium supplemented with 10% heat-inactivated FCS (fetal calf serum), L-glutamine and antibiotics. The cells were cultured in 5% CO2/95% air at […] and used during their exponential growth phase. Routinely, the cells which are adherent, were split when a subconfluent monolayer was formed. In different experiments, various concentration of FCS were used. For growth inhibition experiments, subconfluent adherent cells were washed with PBS and treated with trypsin/versene. The cells were pelleted and resuspended in medium to a final concentration of 75,000 cells/mL for NCI-H727. 50,000 cells/mL for LNCaP and HT-29 and 25000 cells/mL for CT-26. These different concentrations were used in order to avoid confluence in the wells at the end of the experiment and correspond to the different doubling times of the cell lines. On day 0, cells suspensions […] were dispensed using a multi-channel pipet into the individual wells of a 96-well tissue culture plate (Nuncion, Nunc Brand Products). […] Cells were incubated for 24 hours in a humidified atmosphere of 95% air/5% CO2 at 37° C. before treatment. On day 1, the cells were treated with different drugs and schedules and maintained under the same conditions. On day 4, viable cell number was determined by a modified MTT assay i.e., MTS non-radioactive cell proliferation assay (Promega). […] Results were finally expressed as percentage of the control, which was obtained from the samples with no drug treatment. Dose-response curves were plotted using a Sigma-Plot software and statistically analyzed using Student test. To determine the effect of the lipophilic VIP antagonist SNH on cell proliferation, cells plated in 96-well microplates for 24 hours as described, were treated with various concentrations of SNH. The peptide was diluted in PBS and […] of the peptide solution was added to each well for a final concentration of the peptide between 10^−510^−9 M. The solvent was added to the control wells. […] A dose-response curve was obtained at concentrations ranging from 2 μM-10 μM (see, FIG. 2). […] The effects of an 8 hours treatment were slightly less, showing that most of the effect is in the initial hours of exposure and much more dose than time dependent. […] For the experiments with the combinations of VIP antagonists and chemotherapeutic agents, on day 0, the cells were plated for 24 hours in medium supplemented with 5% FCS. On day 1, the peptide was added to the wells followed 1 hour later by the chemotherapeutic agents. […] The chemotherapeutic drugs were tested over 7 concentrations, covering as much as possible of the dose response curve of each individual drug. 24 hours later, the medium was exchanged and the cells incubated under the same conditions for another 48 hours. On day 4 the number of viable cells was determined by MTS assay.

Experiment [3] has as its system cell lines derived from colon cancer and prostate cancer. Nature of the experiment: MTS colorimetric proliferation assay, VIP antagonist with chemotherapeutic agents (Example I). The class given is cell-based. The settings on record: combination with stearyl-Nle17-neurotensis 6-11 VIP 7-28. As for the experimental part: Assays were performed with cell lines derived from colon cancer and prostate cancer. Proliferation was assessed using the MTS colorimetric assay of mitochondrial function for living cells. The VIP antagonist (stearyl-Nle17-neurotensis 6-11 VIP 7-28) was used.

In experiment [4] the target is T1, VIP receptor on U-87 cells (UniProt P32241 31-457, limits assumed).
T1 construct: whole, on cells; also called VIP1 receptor; VPAC1 receptor
T1 sequence (looked up): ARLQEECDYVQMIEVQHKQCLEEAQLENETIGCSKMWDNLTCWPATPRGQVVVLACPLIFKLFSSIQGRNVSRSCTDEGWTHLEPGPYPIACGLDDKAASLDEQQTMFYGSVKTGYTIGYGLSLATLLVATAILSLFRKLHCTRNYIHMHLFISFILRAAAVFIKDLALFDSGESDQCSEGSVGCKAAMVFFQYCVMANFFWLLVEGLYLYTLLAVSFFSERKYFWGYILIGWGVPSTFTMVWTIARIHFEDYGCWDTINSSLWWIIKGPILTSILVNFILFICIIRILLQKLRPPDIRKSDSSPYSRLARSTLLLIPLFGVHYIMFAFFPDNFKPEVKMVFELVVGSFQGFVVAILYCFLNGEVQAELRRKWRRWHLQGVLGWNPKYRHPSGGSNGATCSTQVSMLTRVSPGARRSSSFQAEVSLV
Briefly: competition with 125I-VIP for binding to U-87 cells.

For “KPRRPYTDNYTRLRKQMAVKKYLNSILN [VIPhyb, earlier hybrid VIP antagonist: neurotensin 6-11 joined to VIP 7-28]”, the “Absorbance at 570 nM” value is on record as “.417 ± .064” in the experiment with MCF-7 cells (1 μM), “.353 ± .048” in the experiment on MCF-7 cells (3 μM) and “.317 ± .030” in the experiment on MCF-7 cells (10 μM). Also, the “inhibition of MCF-7 proliferation” value in the experiment on MCF-7 cells (10 μM, MTT assay) is given as “significantly inhibited”. For the same molecule, in experiment [1], the “order of peptide potency, inhibition of VIP-stimulated cAMP” value is on record as “(SN)VIPhybrid>VIP hybrid >PTC4495”. Further, the “tumor volume (height×width×depth)” value in the experiment with MDA-MB231 xenografts came to 508 mm^3.
In the case of `Cl.Nc1ccn([C@@H]2O[C@H](CO)[C@@H](O)C2(F)F)c(=O)n1` [gemcitabine, 2′-deoxy-2′,2′-difluorocytidine hydrochloride], the “nature of the combined effect with SNH” value in experiment [2] is reported as “only additive”. The “enhancement of the antiproliferative activity of the chemotherapeutic agent by the lipophilic VIP antagonist” value (“enhancement” for short) in experiment [3] is “enhance the antiproliferative activity”.
As to `N.N.[Cl][Pt][Cl]` [cisplatin, cis-dichlorodiammineplatinum II], in experiment [2], the “reduction of the IC50 of the chemotherapeutic agent by SNH” value turned out to be 4 fold and the “nature of the combined effect with SNH” value is on record as “synergistic”. Further, the “effect of the combination with the VIP antagonist” value (from here on “effect of the combination”) in experiment [3] is “synergistic”.
Turning to `COc1cccc2c1C(=O)c1c(O)c3c(c(O)c1C2=O)C[C@@](O)(C(=O)CO)C[C@@H]3O[C@H]1C[C@H](N)[C@H](O)[C@H](C)O1` [doxorubicine], the “nature of the combined effect with SNH” value in experiment [2] is recorded as “less pronounced”. Also, in experiment [3], the “effect of the combination” value is given as “synergistic” and the “enhancement” value is listed as “enhance the antiproliferative activity”.
With `CCC1=C[C@@H]2CN(C1)Cc1c([nH]c3ccccc13)[C@@](C(=O)OC)(c1cc3c(cc1OC)N(C)[C@H]1[C@@](O)(C(=O)OC)[C@H](OC(C)=O)[C@]4(CC)C=CCN5CC[C@]31[C@@H]54)C2` [navelbine], in experiment [2], the “reduction of the IC50 of the chemotherapeutic agent by SNH” value is “at least 2 fold” and the “nature of the combined effect with SNH” value is “synergistic”. In addition, in experiment [3], the “effect of the combination” value is “synergistic” and the “enhancement” value was “enhance the antiproliferative activity”.

B1: (N-Stearyl-Norleucine17) VIPhybrid (peptide)
peptide: Stearoyl-KPRRPYTDNYTRLRKQ[Nle]AVKKYLNSILN-NH2
SMILES: CCCCCCCCCCCCCCCCCC(=O)N[C@@H](CCCCN)C(=O)N1CCC[C@H]1C(=O)N[C@@H](CCCNC(=N)N)C(=O)N[C@@H](CCCNC(=N)N)C(=O)N1CCC[C@H]1C(=O)N[C@@H](Cc1ccc(O)cc1)C(=O)N[C@H](C(=O)N[C@@H](CC(=O)O)C(=O)N[C@@H](CC(N)=O)C(=O)N[C@@H](Cc1ccc(O)cc1)C(=O)N[C@H](C(=O)N[C@@H](CCCNC(=N)N)C(=O)N[C@@H](CC(C)C)C(=O)N[C@@H](CCCNC(=N)N)C(=O)N[C@@H](CCCCN)C(=O)N[C@@H](CCC(N)=O)C(=O)N[C@@H](CCCC)C(=O)N[C@@H](C)C(=O)N[C@H](C(=O)N[C@@H](CCCCN)C(=O)N[C@@H](CCCCN)C(=O)N[C@@H](Cc1ccc(O)cc1)C(=O)N[C@@H](CC(C)C)C(=O)N[C@@H](CC(N)=O)C(=O)N[C@@H](CO)C(=O)N[C@H](C(=O)N[C@@H](CC(C)C)C(=O)N[C@@H](CC(N)=O)C(N)=O)[C@@H](C)CC)C(C)C)[C@@H](C)O)[C@@H](C)O
notes: Synthetic lipophilic VIP antagonist; also called (SN)VIPhybrid; SNVIPhybrid
Regarding B1, in experiment [4], the IC50 came out at 500 nM.

B2: Neurotensis 6-11 VIP7-28 (VIPhybrid) (peptide)
peptide: KPRRPYTDNYTRLRKQMAVKKYLNSILN
modifications: ends and bridges not checked
Take B2: in experiment [4], the IC50 turned out to be 70 nM.
